Where “and” joins values, the source holds several entries; their conditions need not be identical. Equal values may be shown once. Read-outs that look alike come from different tables or passages of the source.
Key:
BT474 cells = assay: SRB cell viability assay, Herceptin-sensitive BT474 cells; assay type: cell-based, human; conditions: for mean A at 565 nm: 72 h, background = 0.046
Procedure: Cell culture of the above cell lines was performed as described in Example 2, except that 5,000, rather than 3,000 cells were plated per well for the K562, K562/Dox, BT474, SkBr3 lines.
Table 17 also contains the serially-diluted concentrations of drugs that each cell line was tested against.

BT474-TxR cells = assay: SRB cell viability assay, Herceptin-resistant BT474-TxR cells; assay type: cell-based, human; conditions: for viability at 0.001 µM / viability at 0.02 µM / viability at 0.067 µM / viability at 0.2 µM / viability at 0.67 µM / viability at 2 µM / viability at 6.7 µM / viability at 20 µM / IC50: Homo sapiens; for viability at 0.001 µM / viability at 0.02 µM / viability at 0.067 µM / viability at 0.2 µM / viability at 0.67 µM / viability at 2 µM / viability at 6.7 µM / viability at 20 µM / mean A at 565 nm: 72 h; for viability at 2 µM: Lapatinib 2 μM; for viability at 6.7 µM: Lapatinib 6.7 μM; for viability at 20 µM: Lapatinib 20 μM; for IC50: lapatinib, BT474-TxR
Procedure: PC3-TxR cells were plated into sterile, F-bottom Cellstar® 96 well cell culture plates with lids (Cat #655180, Purchased from Greiner Bio-one, Monroe, N.C.) by placing into each well, 100 μl of medium containing 3000 cells in RPMI 1640 supplemented with 10% fetal bovine serum (Thermo Scientific, Logan, Utah) and a solution of penicillin (100 U/ml) and streptomycin (100 μg/ml) (Life Technologies Grand Island, N.Y.). The cells were at passage 52 at the time of plating. Triplicate wells were assigned to each experimental condition tested, and a 24 hour recovery period for the cells following the seeding of the wells was allowed. During the recovery period, the cells were incubated at 37° C. and 5% CO2.
The LGT-E was prepared by adding an appropriate amount of LGT-E powder to DMSO to form a 500 mg/ml stock solution. The stock solution was alternately vortexed and sonicated until the LGT-E powder went into solution. The stock solution was diluted in RPMI 1640 medium (Mediatech, Manassas, Va., or Life Technologies Grand Island, NY) to reach the desired concentrations of LGT-E (e.g., 12, 25, or 60 μg/ml).
Pretreatment of the cells with LGT-E was carried out by aspirating the media from the wells, followed by adding 50 μl of LGT-E solution containing concentrations of either 12 or 25 μg/ml of LGT-E solution and incubation of the cells for two hours under conditions of 37° C. and 5% CO2.
Media was aspirated from each well, and replaced with a 10% solution of cold trichloroacetic acid (TCA) (Cat #: T6399, purchased from Sigma-Aldrich), and incubated for one hour at 4° C. After the TCA incubation, the TCA solution was aspirated, and the cells were washed five times with tap water. After removing the last wash, the plates were left with lids off at room temperature until the surfaces were dry, which took one to two hours. Then 50 μl of a 0.4% solution of sul-forhodamine B (SRB) sodium salt (Cat #: S9012, purchased from Sigma-Aldrich) was added to each well and the plates were incubated at room temperature for 20 to 30 minutes. Afterwards, the wells were washed five times with a 1% acetic acid solution in 10 mM TRIS base (Cat#: 161-0719, purchased from Bio-Rad Laboratories, Hercules, Calif.). The plates were subsequently left to dry for several hours or overnight. SRB that remained in the dried wells was solubilized by adding 100 μl of SRB solubilization solution (10 mM TRIS base) to each well, and placing the plates either on a gently-moving shaker or letting the plates remain stationary at room temperature until the SRB dissolves, which takes about five to ten minutes. The amount of SRB in each well, which correlated directly to the number of living cells at fixation, was determined spectrophotometrically at an absorbance of 565 nm by a microplate reader.

[1] = no LGT-E pre-treatment (control to Table 28)
[2] = no LGT-E pre-treatment (control to Table 30)
[3] = pre-treated with 25 μg/ml LGT-E

Work on CS(=O)(=O)CCNCc1ccc(-c2ccc3ncnc(Nc4ccc(OCc5cccc(F)c5)c(Cl)c4)c3c2)o1 [lapatinib] yielded a viability at 0.001 µM (BT474 cells; Homo sapiens, BT-474, 72 h) of 100%, a viability at 0.05 µM (BT474 cells; Homo sapiens, BT-474, 72 h) of 65.7% and a viability at 0.167 µM (BT474 cells; Homo sapiens, BT-474, 72 h) of 52.1%. For the same compound, the viability at 0.5 µM (BT474 cells; Homo sapiens, BT-474, 72 h) was 26.9%, the viability at 1.67 µM (BT474 cells; Homo sapiens, BT-474, 72 h) was 21.1% and the viability at 5 µM (BT474 cells; Homo sapiens, BT-474, 72 h) was 14.1%. The viability at 16.7 µM (BT474 cells; Homo sapiens, BT-474, 72 h) was 8%, the viability at 50 µM (BT474 cells; Homo sapiens, BT-474, 72 h) was 2.3% and the IC50 (BT474 cells; Homo sapiens, BT-474, read-out: IC50 of drug when cells treated with drug only) was 116 nM and 0.067 µg/mL. For the same compound, the “mean A at 565 nm” value (BT474 cells; Lapatinib 0.001 μM) was 1.688, the “mean A at 565 nm” value (BT474 cells; Lapatinib 0.167 μM) was 0.880 and the “mean A at 565 nm” value (BT474 cells; Lapatinib 0.5 μM) was 0.453. The “mean A at 565 nm” value (BT474 cells; Lapatinib 5 μM) was 0.238, the “mean A at 565 nm” value (BT474 cells; Lapatinib 16.7 μM) was 0.136 and the “mean A at 565 nm” value (BT474 cells; Lapatinib 50 μM) was 0.038. It also gave a viability at 0.001 µM (BT474-TxR cells; Lapatinib 0.001 μM, no LGT-E pre-treatment (control to Table 28)) of 100%, a viability at 0.001 µM (BT474-TxR cells; Lapatinib 0.001 μM, no LGT-E pre-treatment (control to Table 30)) of 100% and a viability at 0.001 µM (BT474-TxR cells; Lapatinib 0.001 μM, pre-treated with 25 μg/ml LGT-E) of 100%. For the same compound, the viability at 0.001 µM (BT474-TxR cells; Lapatinib 0.001 μM, pre-treated with […] LGT-E) was 100%, the viability at 0.02 µM (BT474-TxR cells; Lapatinib 0.02 μM, no LGT-E pre-treatment (control to Table 28)) was 97.3% and the viability at 0.02 µM (BT474-TxR cells; Lapatinib 0.02 μM, no LGT-E pre-treatment (control to Table 30)) was 82.6%. The viability at 0.02 µM (BT474-TxR cells; Lapatinib 0.02 μM, pre-treated with 25 μg/ml LGT-E) was 85.8%, the viability at 0.02 µM (BT474-TxR cells; Lapatinib 0.02 μM, pre-treated with […] LGT-E) was 94% and the viability at 0.067 µM (BT474-TxR cells; Lapatinib 0.067 μM, no LGT-E pre-treatment (control to Table 28)) was 97.6%. The viability at 0.067 µM (BT474-TxR cells; Lapatinib 0.067 μM, no LGT-E pre-treatment (control to Table 30)) was 91.8%, the viability at 0.067 µM (BT474-TxR cells; Lapatinib 0.067 μM, pre-treated with 25 μg/ml LGT-E) was 77.3% and the viability at 0.067 µM (BT474-TxR cells; Lapatinib 0.067 μM, pre-treated with […] LGT-E) was 91.3%. It also gave a viability at 0.2 µM (BT474-TxR cells; Lapatinib 0.2 μM, no LGT-E pre-treatment (control to Table 28)) of 84.7%, a viability at 0.2 µM (BT474-TxR cells; Lapatinib 0.2 μM, no LGT-E pre-treatment (control to Table 30)) of 76.9% and a viability at 0.2 µM (BT474-TxR cells; Lapatinib 0.2 μM, pre-treated with 25 μg/ml LGT-E) of 67.9%. For the same compound, the viability at 0.2 µM (BT474-TxR cells; Lapatinib 0.2 μM, pre-treated with […] LGT-E) was 70.9%, the viability at 0.67 µM (BT474-TxR cells; Lapatinib 0.67 μM, no LGT-E pre-treatment (control to Table 28)) was 68.7% and the viability at 0.67 µM (BT474-TxR cells; Lapatinib 0.67 μM, no LGT-E pre-treatment (control to Table 30)) was 70.5%. It also gave a viability at 0.67 µM (BT474-TxR cells; Lapatinib 0.67 μM, pre-treated with 25 μg/ml LGT-E) of 57.4%, a viability at 0.67 µM (BT474-TxR cells; Lapatinib 0.67 μM, pre-treated with […] LGT-E) of 59.9% and a viability at 2 µM (BT474-TxR cells; [1]) of 65.2%. The viability at 2 µM (BT474-TxR cells; [2]) was 60.6%, the viability at 2 µM (BT474-TxR cells; [3]) was 50.4% and the viability at 2 µM (BT474-TxR cells; pre-treated with […] LGT-E) was 53.5%. For the same compound, the viability at 6.7 µM (BT474-TxR cells; [1]) was 59.4%, the viability at 6.7 µM (BT474-TxR cells; [2]) was 55.1% and the viability at 6.7 µM (BT474-TxR cells; [3]) was 37.1%. For the same compound, the viability at 6.7 µM (BT474-TxR cells; pre-treated with […] LGT-E) was 46.3%, the viability at 20 µM (BT474-TxR cells; [1]) was 52.3% and the viability at 20 µM (BT474-TxR cells; [2]) was 43.8%. The viability at 20 µM (BT474-TxR cells; [3]) was 24.9%, the viability at 20 µM (BT474-TxR cells; pre-treated with […] LGT-E) was 40.6% and the IC50 (BT474-TxR cells; LGT-E 25 μg/ml pre-treatment, read-out: IC50 of drug when cells pre-treated with Chemosensitizing Agent before drug treatment) was 2 µM and 1.16 µg/mL. The IC50 (BT474-TxR cells; line of LGT-E 25 μg/ml, read-out: IC50 of drug when cells treated with drug only) was 11 µM and 6.39 µg/mL, the “mean A at 565 nm” value (BT474-TxR cells; Lapatinib 0.001 μM, no LGT-E pre-treatment (control to Table 28), background = 0.045) was 1.135 and the “mean A at 565 nm” value (BT474-TxR cells; Lapatinib 0.001 μM, no LGT-E pre-treatment (control to Table 30), background = 0.047) was 1.176. For the same compound, the “mean A at 565 nm” value (BT474-TxR cells; Lapatinib 0.001 μM, pre-treated with 25 μg/ml LGT-E, background = 0.047) was 0.957, the “mean A at 565 nm” value (BT474-TxR cells; Lapatinib 0.001 μM, pre-treated with […] LGT-E, background = 0.045) was 0.997 and the “mean A at 565 nm” value (BT474-TxR cells; Lapatinib 0.02 μM, no LGT-E pre-treatment (control to Table 28), background = 0.045) was 1.104. For the same compound, the “mean A at 565 nm” value (BT474-TxR cells; Lapatinib 0.02 μM, no LGT-E pre-treatment (control to Table 30), background = 0.047) was 0.971, the “mean A at 565 nm” value (BT474-TxR cells; Lapatinib 0.02 μM, pre-treated with 25 μg/ml LGT-E, background = 0.047) was 0.821 and the “mean A at 565 nm” value (BT474-TxR cells; Lapatinib 0.02 μM, pre-treated with […] LGT-E, background = 0.045) was 0.937. For the same compound, the “mean A at 565 nm” value (BT474-TxR cells; Lapatinib 0.067 μM, no LGT-E pre-treatment (control to Table 30), background = 0.047) was 1.079, the “mean A at 565 nm” value (BT474-TxR cells; Lapatinib 0.067 μM, pre-treated with 25 μg/ml LGT-E, background = 0.047) was 0.740 and the “mean A at 565 nm” value (BT474-TxR cells; Lapatinib 0.067 μM, pre-treated with […] LGT-E, background = 0.045) was 0.911. For the same compound, the “mean A at 565 nm” value (BT474-TxR cells; Lapatinib 0.2 μM, no LGT-E pre-treatment (control to Table 28), background = 0.045) was 0.961, the “mean A at 565 nm” value (BT474-TxR cells; Lapatinib 0.2 μM, no LGT-E pre-treatment (control to Table 30), background = 0.047) was 0.905 and the “mean A at 565 nm” value (BT474-TxR cells; Lapatinib 0.2 μM, pre-treated with 25 μg/ml LGT-E, background = 0.047) was 0.650. For the same compound, the “mean A at 565 nm” value (BT474-TxR cells; Lapatinib 0.2 μM, pre-treated with […] LGT-E, background = 0.045) was 0.707 and the “mean A at 565 nm” value (BT474-TxR cells; Lapatinib 0.67 μM, no LGT-E pre-treatment (control to Table 28), background = 0.045) was 0.780.

Reference: patent US10149876B2, “Tripterygium wilfordii extracts to overcome chemotherapy resistance” (WESTERN UNIVERSITY OF HEALTH SCIENCES, priority 2012, dated 2018)
